The Bradley open melting point set (2014)
“And” between values parts separate entries of the source, which are not always exact repeats. Equal entries are not always repeated.

| SMILES | melting point |
| --- | --- |
| O=[N+]([O-])c1ccc(/N=N/c2c(O)ccc3ccccc23)cc1 [1-(4-nitrophenylazo)-2-naphthol] | 250 °C |
| N#CCC(=O)N1CCCC1 [1-(cyanoacetyl)pyrrolidine] | 73 °C |
| O=C(O)C1(C(F)(F)F)CCCCC1 [1-(trifluoromethyl)cyclohexanecarboxylic acid] | 70 °C |
| Nc1c(Br)cc(Br)c2c1C(=O)c1ccccc1C2=O [1-Amino-2,4-dibromo-9,10-anthraquinone] | 226 °C |
| Cc1ccc(Br)cc1 [1-Bromo-4-methylbenzene] | 28.5 °C |
| O=[N+]([O-])c1ccc(Cl)c([N+](=O)[O-])c1 [1-Chloro-2,4-dinitrobenzene] | 53 °C |
| Cc1cccc(Cl)c1 [1-Chloro-3-methylbenzene] | -48 °C |
| O=[N+]([O-])c1ccc(Cl)cc1 [1-Chloro-4-nitrobenzene] | 83.6 °C |
| CCCCCl [1-Chlorobutane] | -123 °C |
| CCCCCCCl [1-Chlorohexane] | -94 °C |
| O=[N+]([O-])c1ccc(F)c([N+](=O)[O-])c1 [1-Fluoro-2,4-dinitrobenzene] | 27 °C |
| COc1cc(Cl)c(Cl)c(Cl)c1Cl [1-Methoxy-2,3,4,5-tetrachlorobenzene] | 88 °C |
| COc1ccc([N+](=O)[O-])cc1 [1-Methoxy-4-nitrobenzene] | 48 °C |
| O=C(O)c1cccc2ccccc12 [1-Naphthoic acid] | 162 °C |
| O=[N+]([O-])c1cccc2ccccc12 [1-Nitronaphthalene] | 61.5 °C |
| FC(F)(F)c1cc(-n2cccc2)cc(C(F)(F)F)c1 [1-[3,5-bis(trifluoromethyl)phenyl]pyrrole] | 42 °C |
| Cc1ccc(N=Nc2c(O)ccc3ccccc23)c([N+](=O)[O-])c1 [1-[(4-Methyl-2-nitrophenyl)diazenyl]-2-naphthol] | 271 °C |
| OCCC12CC3CC(CC(C3)C1)C2 [1-adamantaneethanol] | 74 °C |
| NC12CC3CC(CC(C3)C1)C2 [1-adamantylamine] | 180 °C |
| CCCCN [1-aminobutane] | -49 °C |
| CCCCCCCCN [1-aminooctane] | 0 °C |
| Clc1cccc(Cl)c1Br [1-bromo-2,6-dichlorobenzene] | 66 °C |
| Fc1cc(I)ccc1Br [1-bromo-2-fluoro-4-iodobenzene] | 36 °C |
| Clc1cc(Cl)cc(Br)c1 [1-bromo-3,5-dichlorobenzene] | 75 °C |
| Brc1cccc(I)c1 [1-bromo-3-iodobenzene] | -9 °C |
| Fc1ccc(Br)cc1 [1-bromo-4-fluorobenzene] | -16 °C |
| O=[N+]([O-])c1ccc(Br)cc1 [1-bromo-4-nitrobenzene] | 126 °C |

| SMILES | melting point |
| --- | --- |
| CCCCBr [1-bromobutane] | -112 °C |
| CCCCCCCBr [1-bromoheptane] | -56 °C |
| CCCCCCBr [1-bromohexane] | -85 °C |
| O=[N+]([O-])c1ccc(Cl)c([N+](=O)[O-])c1 [1-chloro-2,4-dinitrobenzene] | 53 °C |
| Fc1ccc(Cl)cc1 [1-chloro-4-fluorobenzene] | -22 °C |
| O=[N+]([O-])c1ccc(Cl)cc1 [1-chloro-4-nitrobenzene] [listing 1 of 2 here] | 84 °C |
| O=[N+]([O-])c1ccc(Cl)cc1 [1-chloro-4-nitrobenzene] [listing 2 of 2 here] | 84 °C |
| O=C1c2ccccc2C(=O)c2c(Cl)cccc21 [1-chloroanthraquinone] | 160 °C |
| CCCCCl [1-chlorobutane] | -123 °C |
| CCCCCCCCCCCl [1-chlorodecane] | -31 °C |
| CCCCCCCCCCCCCCCCCl [1-chlorohexadecane] | 9 °C |
| CCCCCCCl [1-chlorohexane] | -94 °C |
| O=C(O)C1=CCCCC1 [1-cyclohexene-1-carboxylic acid] | 32 °C |
| O=c1ncnc2n(C3CCCCC3)[nH]cc1-2 [1-cyclohexyl-1,2-dihydro-4H-pyrazolo[3,4-d]pyrimidin-4-one] | 252 °C |
| CCCCCCCCCCS(=O)(=O)Cl [1-decanesulfonyl chloride] | 32 °C |
| CCCCCCCCCCO [1-decanol] | 7 °C |
| CCCCCCCCCCCCS(=O)(=O)Cl [1-dodecanesulfonyl chloride] | 41 °C |
| CCCCCCCCCCCCS [1-dodecanethiol] | -7 °C |
| C=CCCCCCCCCCC [1-dodecene] | -35 °C |
| C#CC1(O)CCCCC1 [1-ethynylcyclohexanol] | 32 °C |
| O=[N+]([O-])c1ccc(F)c([N+](=O)[O-])c1 [1-fluoro-2,4-dinitrobenzene] | 27 °C |
| CCCCCCCCCCCCCCCCCO [1-heptadecanol] | 58 °C |
| C=CCCCCCCCCCCCCCC [1-hexadecene] | 4 °C |
| CCCCCCS [1-hexanethiol] | -80 °C |
| C=CCCCC [1-hexene] [listing 1 of 2 here] | -140 °C |
| C=CCCCC [1-hexene] [listing 2 of 2 here] | -140 °C |
| Cc1c(C#N)c2ccccc2n1O [1-hydroxy-2-methyl-1H-indole-3-carbonitrile] | 159 °C |

| SMILES | melting point |
| --- | --- |
| CC1(C)C(=O)NC(=O)N1CO [1-hydroxymethyl-5,5-dimethylhydantoin] | 105 °C |
| O=[N+]([O-])c1ccccc1I [1-iodo-2-nitrobenzene] | 51 °C |
| O=[N+]([O-])c1cccc(I)c1 [1-iodo-3-nitrobenzene] | 37 °C |
| CCCCCCI [1-iodohexane] | -75 °C |
| COc1cc(Cl)c(Cl)c(Cl)c1Cl [1-methoxy-2,3,4,5-tetrachlorobenzene] | 88 °C |
| Cn1nnc2ccccc21 [1-methyl-1h-benzotriazole] | 65 °C |
| CCc1ccc(C)cc1 [1-methyl-4-ethylbenzene] | -62 °C |
| CC1(O)CCCCC1 [1-methylcyclohexanol] | 26 °C |
| CC1=CCCCC1 [1-methylcyclohexene] [listing 1 of 2 here] | -120 °C |
| CC1=CCCCC1 [1-methylcyclohexene] [listing 2 of 2 here] | -120 °C |
| Cc1cccc2c1Cc1ccccc1-2 [1-methylfluorene] [listing 1 of 2 here] | 85 °C |
| Cc1cccc2c1Cc1ccccc1-2 [1-methylfluorene] [listing 2 of 2 here] | 85 °C |
| Cc1cccc2ccccc12 [1-methylnaphthalene] | -22 °C |
| CCCCCCn1c(=O)c2c(ncn2C)n(C)c1=O [1-n-hexyltheobromine] | 81 °C |
| Oc1cccc2ccccc12 [1-naphthol] | 96 °C |
| O=C(Cl)c1cccc2ccccc12 [1-naphthoyl chloride] | 18 °C |
| O=C=Nc1cccc2ccccc12 [1-naphthyl isocyanate] | 4 °C |
| O=[N+]([O-])c1ccc(/C=C/c2ccccc2[N+](=O)[O-])cc1 [1-nitro-2-[(E)-2-(4-nitrophenyl)ethenyl]benzene] | 139 °C |
| C=CCCCCCCC [1-nonene] | -81 °C |
| CCCCCCCCO [1-octanol] | -15 °C |
| C=CCCCCCC [1-octene] | -102 °C |
| C#CCCCCCC [1-octyne] | -79 °C |
| CCCCCCCCCCCCCCCO [1-pentadecanol] | 46 °C |
| C#CCCCCCCCCCCCCC [1-pentadecyne] | 10 °C |
| CCCCCS [1-pentanethiol] | -76 °C |
| N#CC1(c2ccccc2)C=Cc2ccccc21 (stereo not given) [1-phenyl-1H-indene-1-carbonitrile] | 77 °C |
| c1ccc(N2CCNCC2)cc1 [1-phenylpiperazine] | 18 °C |

| SMILES | melting point |
| --- | --- |
| CCCCCCCCCCCCCCO [1-tetradecanol] | 40 °C |
| C=CCCCCCCCCCCC [1-tridecene] | -23 °C |
| C=CCCCCCCCCC [1-undecene] | -49 °C |
| O=C(O)Cn1cncn1 [1h-1,2,4-triazole-1-acetic acid] | 203 °C |
| CC(=O)c1c(C)c(C)c(C)c(C)c1C [2',3',4',5',6'-pentamethylacetophenone] | 86 °C |
| CCC(=O)c1ccc(O)cc1O [2',4'-dihydroxypropiophenone] | 100 °C |
| CC(=O)c1cc(O)ccc1O [2',5'-dihydroxyacetophenone] | 206 °C |
| CCC(=O)c1cc(O)ccc1O [2',5'-dihydroxypropiophenone] | 98 °C |
| COc1ccc(OC)c(C(C)=O)c1 [2',5'-dimethoxyacetophenone] | 19 °C |
| COc1cc(N)c(C(C)=O)cc1OC [2'-amino-4',5'-dimethoxyacetophenone] | 106 °C |
| CC(=O)Nc1ccccc1C [2'-methylacetanilide] | 111 °C |
| CC(=O)c1ccccc1[N+](=O)[O-] [2'-nitroacetophenone] | 27 °C |
| Cc1ccc(C)c(-c2cc(C)ccc2C)c1 [2,2',5,5'-tetramethylbiphenyl] | 50 °C |
| O=[N+]([O-])c1cc([N+](=O)[O-])c(C2CO2)cc1C1CO1 (stereo not given) [2,2'-(4,6-dinitrobenzene-1,3-diyl)dioxirane] | 154 °C |
| ON=C(/C(=N\O)c1ccco1)c1ccco1 [2,2'-furil dioxime] | 165 °C |
| O=C(c1ccco1)C(O)c1ccco1 (stereo not given) [2,2'-furoin] | 138 °C |
| CCOC(O)C(Cl)(Cl)Cl (stereo not given) [2,2,2-trichloro-1-ethoxyethanol] | 50 °C |
| CC(C)C(C)(C)C(C)(C)C [2,2,3,3,4-pentamethylpentane] | -36 °C |
| COC(C)(C)OC [2,2-Dimethoxypropane] | -47 °C |
| CC(C)(CO)CO [2,2-dimethyl-1,3-propanediol] | 128 °C and 126 °C |
| CC(C)(C)CS [2,2-dimethyl-1-propanethiol] | -67 °C |
| O[C@H]1O[C@H](COCc2ccccc2)[C@@H](OCc2ccccc2)[C@H](OCc2ccccc2)[C@H]1OCc1ccccc1 [2,3,4,6-tetra-o-benzyl-alpha-D-glucopyranose] | 151 °C |
| O=C(O)C1CC2=C3C=CCC=C3N=C2CN1 (stereo not drawn) [2,3,4,9-tetrahydro-1H-beta-carboline-3-carboxylic acid] | 296 °C |
| O=[N+]([O-])c1ccc(Cl)c(Cl)c1Cl [2,3,4-Trichloronitrobenzene] | 55.5 °C |
